The record followed here is US12497365B2, “4-pyridinyl formamide compound or derivative thereof, preparation method therefor, herbicidal composition and use thereof” (Qingdao Kingagroot Chemical Compound Co., Ltd., priority 2019, dated 2025).

Test in all cases: Weeding effect in post-emergence stage
Holding throughout (assay type): in vivo
Details in all cases: active ingredient 2000 g/ha, 3 weeks after application, fresh weight control rate

One test relates to Descurainia sophia. From the text: (§1) The activity level criteria for plant damage (i.e., growth control rate) are as follows:
(§2) The above growth control rates are fresh weight control rates.
(§3) Experiment on weeding effect in post-emergence stage: monocotyledonous and dicotyledonous weed seeds and major crop seeds (wheat, corn, rice, soybean, cotton, oilseed rape, millet, sorghum) were placed in plastic pots filled with soil, then covered with 0.5-2 cm of soil, allowed to grow in a good greenhouse environment. After 2 weeks of sowing, the test plants were treated in the 2-3 leaf stage. The tested compounds of the present invention were respectively dissolved in acetone at the dosage of 2000, 1000, 500, 250, 125 g/ha, then added with Tween 80 and 1.5 liter/ha of emulsifiable concentrate of methyl oleate as synergist, diluted with a certain amount of water to obtain a solution with a certain concentration, and sprayed with a spray tower onto the plants. After the application, the plants were cultured for 3 weeks in the greenhouse, and then the experimental results were listed in Table 1.

Test [1] concerns Amaranthus retroflexus L.
From the text: as §1, §2, §3

Another test has as its system Abutilon theophrasti.
From the text: as §1, §2, §3

A further test concerns Chenopodium album.
From the text: as §1, §2, §3

Take `Cn1nnnc1NC(=O)c1ccnc(-c2cccc(OC(F)(F)F)c2)c1Cl` [Compound 1-32]: in the test on Descurainia sophia, the “Weeding effect, activity level (growth control rate), Descurainia sophia” value (“Weeding effect … Descurainia sophia” below) is recorded as 5 (Level 5: growth control rate is above 85%). In test [1], the “Weeding effect, activity level (growth control rate), Amaranthus retroflexus L.” value (shortened to “Weeding effect … Amaranthus retroflexus L.”) was 5 (Level 5: growth control rate is above 85%). Further, the “Weeding effect, activity level (growth control rate), Abutilon theophrasti” value (“Weeding effect … Abutilon theophrasti” below) in the test on Abutilon theophrasti was 5 (Level 5: growth control rate is above 85%). In addition, the “Weeding effect, activity level (growth control rate), Chenopodium album” value (“Weeding effect … Chenopodium album” for short) with Chenopodium album is recorded as 5 (Level 5: growth control rate is above 85%).
For the molecule `Cn1nnnc1NC(=O)c1ccnc(-c2ccc(OC(F)(F)F)cc2)c1Cl` [Compound 1-33], the “Weeding effect … Descurainia sophia” value with Descurainia sophia was 5 (Level 5: growth control rate is above 85%). The “Weeding effect … Amaranthus retroflexus L.” value in test [1] was 5 (Level 5: growth control rate is above 85%). In the test on Abutilon theophrasti, the “Weeding effect … Abutilon theophrasti” value is given as 5 (Level 5: growth control rate is above 85%). The “Weeding effect … Chenopodium album” value with Chenopodium album is listed as 5 (Level 5: growth control rate is above 85%).
Consider `Cn1nnnc1NC(=O)c1ccnc(-c2ccccc2O)c1Cl` [Compound 1-34], for which the “Weeding effect … Descurainia sophia” value with Descurainia sophia was 5 (Level 5: growth control rate is above 85%). Further, the “Weeding effect … Amaranthus retroflexus L.” value in test [1] is 5 (Level 5: growth control rate is above 85%). In addition, the “Weeding effect … Abutilon theophrasti” value in the test with Abutilon theophrasti is listed as 5 (Level 5: growth control rate is above 85%). The “Weeding effect … Chenopodium album” value with Chenopodium album is on record as 5 (Level 5: growth control rate is above 85%).
Consider `Cn1nnnc1NC(=O)c1ccnc(-c2ccc(O)cc2)c1Cl` [Compound 1-35], for which, in the test on Descurainia sophia, the “Weeding effect … Descurainia sophia” value is 5 (Level 5: growth control rate is above 85%). In addition, in test [1], the “Weeding effect … Amaranthus retroflexus L.” value was 5 (Level 5: growth control rate is above 85%). In addition, the “Weeding effect … Abutilon theophrasti” value in the test with Abutilon theophrasti is listed as 5 (Level 5: growth control rate is above 85%). In addition, the “Weeding effect … Chenopodium album” value in the test with Chenopodium album is recorded as 5 (Level 5: growth control rate is above 85%).
For the molecule `Cn1nnnc1NC(=O)c1ccnc(-c2cccc(CO)c2)c1Cl` [Compound 1-36], in the test on Descurainia sophia, the “Weeding effect … Descurainia sophia” value is on record as 5 (Level 5: growth control rate is above 85%). In test [1], the “Weeding effect … Amaranthus retroflexus L.” value is 5 (Level 5: growth control rate is above 85%). The “Weeding effect … Abutilon theophrasti” value in the test with Abutilon theophrasti is listed as 5 (Level 5: growth control rate is above 85%). Also, the “Weeding effect … Chenopodium album” value in the test on Chenopodium album was 5 (Level 5: growth control rate is above 85%).
In the case of `Cn1nnnc1NC(=O)c1ccnc(-c2ccc(N)cc2)c1Cl` [Compound 1-37], the “Weeding effect … Descurainia sophia” value with Descurainia sophia is 5 (Level 5: growth control rate is above 85%). Also, in test [1], the “Weeding effect … Amaranthus retroflexus L.” value was 5 (Level 5: growth control rate is above 85%). Moreover, the “Weeding effect … Abutilon theophrasti” value with Abutilon theophrasti is recorded as 5 (Level 5: growth control rate is above 85%). Moreover, the “Weeding effect … Chenopodium album” value with Chenopodium album is reported as 5 (Level 5: growth control rate is above 85%).
As to `Cn1nnnc1NC(=O)c1ccnc(-c2ccccc2[N+](=O)[O-])c1Cl` [Compound 1-38], in the test on Descurainia sophia, the “Weeding effect … Descurainia sophia” value is recorded as 5 (Level 5: growth control rate is above 85%). Further, the “Weeding effect … Amaranthus retroflexus L.” value in test [1] is given as 5 (Level 5: growth control rate is above 85%). Moreover, the “Weeding effect … Abutilon theophrasti” value in the test on Abutilon theophrasti is given as 5 (Level 5: growth control rate is above 85%). Further, in the test with Chenopodium album, the “Weeding effect … Chenopodium album” value is listed as 5 (Level 5: growth control rate is above 85%).
Turning to `Cn1nnnc1NC(=O)c1ccnc(-c2ccc(C(=O)O)cc2)c1Cl` [Compound 1-39], in the test with Descurainia sophia, the “Weeding effect … Descurainia sophia” value was 5 (Level 5: growth control rate is above 85%). For the same molecule, the “Weeding effect … Amaranthus retroflexus L.” value in test [1] was 5 (Level 5: growth control rate is above 85%). Moreover, the “Weeding effect … Abutilon theophrasti” value in the test with Abutilon theophrasti is on record as 5 (Level 5: growth control rate is above 85%). In the test on Chenopodium album, the “Weeding effect … Chenopodium album” value is 5 (Level 5: growth control rate is above 85%).
For the molecule `COC(=O)c1ccc(-c2nccc(C(=O)Nc3nnnn3C)c2Cl)cc1` [Compound 1-40], the “Weeding effect … Descurainia sophia” value in the test with Descurainia sophia was 5 (Level 5: growth control rate is above 85%). The “Weeding effect … Amaranthus retroflexus L.” value in test [1] is 5 (Level 5: growth control rate is above 85%). Further, the “Weeding effect … Abutilon theophrasti” value in the test on Abutilon theophrasti is reported as 5 (Level 5: growth control rate is above 85%). Further, in the test on Chenopodium album, the “Weeding effect … Chenopodium album” value is given as 5 (Level 5: growth control rate is above 85%).
In the case of `Cn1nnnc1NC(=O)c1ccnc(-c2ccc(C(=O)OC(C)(C)C)cc2)c1Cl` [Compound 1-41], the “Weeding effect … Descurainia sophia” value in the test on Descurainia sophia is reported as 5 (Level 5: growth control rate is above 85%). Also, in test [1], the “Weeding effect … Amaranthus retroflexus L.” value is 5 (Level 5: growth control rate is above 85%). In addition, the “Weeding effect … Abutilon theophrasti” value with Abutilon theophrasti is 5 (Level 5: growth control rate is above 85%). Further, in the test with Chenopodium album, the “Weeding effect … Chenopodium album” value is reported as 5 (Level 5: growth control rate is above 85%).
As for `CSc1ccccc1-c1nccc(C(=O)Nc2nnnn2C)c1Cl` [Compound 1-42], the “Weeding effect … Descurainia sophia” value in the test on Descurainia sophia was 5 (Level 5: growth control rate is above 85%). Besides, in test [1], the “Weeding effect … Amaranthus retroflexus L.” value is reported as 5 (Level 5: growth control rate is above 85%). Further, the “Weeding effect … Abutilon theophrasti” value in the test with Abutilon theophrasti is given as 5 (Level 5: growth control rate is above 85%). For the same molecule, in the test with Chenopodium album, the “Weeding effect … Chenopodium album” value is given as 5 (Level 5: growth control rate is above 85%).
Take `CC(C)Sc1ccc(-c2nccc(C(=O)Nc3nnnn3C)c2Cl)cc1` [Compound 1-43]: the “Weeding effect … Descurainia sophia” value in the test with Descurainia sophia was 5 (Level 5: growth control rate is above 85%). For the same molecule, the “Weeding effect … Amaranthus retroflexus L.” value in test [1] is recorded as 5 (Level 5: growth control rate is above 85%). Also, the “Weeding effect … Abutilon theophrasti” value in the test with Abutilon theophrasti is reported as 5 (Level 5: growth control rate is above 85%). For the same molecule, the “Weeding effect … Chenopodium album” value in the test on Chenopodium album is recorded as 5 (Level 5: growth control rate is above 85%).
Take `Cn1nnnc1NC(=O)c1ccnc(-c2cccc(S(C)(=O)=O)c2)c1Cl` [Compound 1-44]: the “Weeding effect … Descurainia sophia” value in the test on Descurainia sophia was 5 (Level 5: growth control rate is above 85%). Also, the “Weeding effect … Amaranthus retroflexus L.” value in test [1] is recorded as 5 (Level 5: growth control rate is above 85%). Besides, the “Weeding effect … Abutilon theophrasti” value in the test with Abutilon theophrasti is recorded as 5 (Level 5: growth control rate is above 85%). Moreover, in the test on Chenopodium album, the “Weeding effect … Chenopodium album” value was 5 (Level 5: growth control rate is above 85%).
For `Cn1nnnc1NC(=O)c1ccnc(-c2ccc(S(C)(=O)=O)cc2)c1Cl` [Compound 1-45], in the test with Descurainia sophia, the “Weeding effect … Descurainia sophia” value was 5 (Level 5: growth control rate is above 85%). The “Weeding effect … Amaranthus retroflexus L.” value in test [1] is reported as 5 (Level 5: growth control rate is above 85%). The “Weeding effect … Abutilon theophrasti” value with Abutilon theophrasti is reported as 5 (Level 5: growth control rate is above 85%). Further, the “Weeding effect … Chenopodium album” value in the test with Chenopodium album is 5 (Level 5: growth control rate is above 85%).
In the case of `Cn1nnnc1NC(=O)c1ccnc(-c2ccc(S(=O)(=O)N3CCOCC3)cc2)c1Cl` [Compound 1-46], the “Weeding effect … Descurainia sophia” value in the test with Descurainia sophia was 5 (Level 5: growth control rate is above 85%). Also, the “Weeding effect … Amaranthus retroflexus L.” value in test [1] is 5 (Level 5: growth control rate is above 85%). For the same molecule, the “Weeding effect … Abutilon theophrasti” value with Abutilon theophrasti is recorded as 5 (Level 5: growth control rate is above 85%). Further, the “Weeding effect … Chenopodium album” value in the test on Chenopodium album is reported as 5 (Level 5: growth control rate is above 85%).
Take `CC(=O)Nc1ccc(-c2nccc(C(=O)Nc3nnnn3C)c2Cl)cc1` [Compound 1-47]: the “Weeding effect … Descurainia sophia” value in the test with Descurainia sophia was 5 (Level 5: growth control rate is above 85%). The “Weeding effect … Amaranthus retroflexus L.” value in test [1] is reported as 5 (Level 5: growth control rate is above 85%). In the test with Abutilon theophrasti, the “Weeding effect … Abutilon theophrasti” value is listed as 5 (Level 5: growth control rate is above 85%). In addition, in the test on Chenopodium album, the “Weeding effect … Chenopodium album” value is 5 (Level 5: growth control rate is above 85%).
Turning to `C=CC(=O)Nc1cccc(-c2nccc(C(=O)Nc3nnnn3C)c2Cl)c1` [Compound 1-48], in the test on Descurainia sophia, the “Weeding effect … Descurainia sophia” value is 5 (Level 5: growth control rate is above 85%). In addition, the “Weeding effect … Amaranthus retroflexus L.” value in test [1] is reported as 5 (Level 5: growth control rate is above 85%). Moreover, the “Weeding effect … Abutilon theophrasti” value in the test on Abutilon theophrasti is reported as 5 (Level 5: growth control rate is above 85%). Besides, in the test on Chenopodium album, the “Weeding effect … Chenopodium album” value is given as 5 (Level 5: growth control rate is above 85%).
For `Cn1nnnc1NC(=O)c1ccnc(-c2cccc(C#N)c2)c1Cl` [Compound 1-49], in the test with Descurainia sophia, the “Weeding effect … Descurainia sophia” value is 5 (Level 5: growth control rate is above 85%). Moreover, the “Weeding effect … Amaranthus retroflexus L.” value in test [1] is reported as 5 (Level 5: growth control rate is above 85%). For the same molecule, the “Weeding effect … Abutilon theophrasti” value in the test with Abutilon theophrasti was 5 (Level 5: growth control rate is above 85%). Moreover, the “Weeding effect … Chenopodium album” value with Chenopodium album was 5 (Level 5: growth control rate is above 85%).
